Reference: US20130053434A1, “IRREVERSIBLE INHIBITORS USEFUL FOR THE TREATMENT OF KINASE-RELATED PATHOLOGIES” (CENTRE NATIONAL DE LA RECHERCHE SCIENTIFIQUE, priority 2009, published 2013)
Read-outs that look alike come from different tables or passages of the source.

Experiments:
[1] = system: orthotopically implanted RENCA-LN cells; assay: orthotopic murine renal cell carcinoma (RENCA) model, in vivo efficacy; conditions: untreated group had two animals; groups of 12
Description: RENCA-LN cells were obtained and cultured as described above. Sixty female BALB/c mice of 5 to 6 weeks were orthotopically implanted RENCA-LN cells into the left kidney (4×10^5 cells in 25 μl aliquots into the subcapsular space through a flank incision, Day 0). The mice were randomly divided into 5 groups of 12 mice each. On day 2, therapy was initiated. Animals in the vehicle control group (group 1) received 10 ml/kg Vehicle (PBS w/o Ca/Mg, 10% DMSO, 40% PEG-300) i.p. once daily until day 19. Animals of positive control group (group 2) received 40 mg/kg Sunitinib (Sutent®) p.o. once daily until day 20. Animals of treatment group 3 and 4 received 20 mg/kg of 3 once daily and every other day respectively (i.p.). Animals of treatment group 5 received 20 mg/kg of 5 once daily (i.p.). Due to partial weight loss, therapy in Groups 3 and 5 was suspended on days 11 and 12 and stopped on day 17. On day 20, the study was terminated and a necropsy performed. All animals were weighted, anaesthetised by isoflurane and killed by exsanguination. Two animals in group 1 were found dead on day 19 and 1 animal in group 3 and 5 on day 11 and 9 respectively. At necropsy, primary tumor weight and volume, lung weight and number of lung metastases were determined. Primary tumor tissues were collected and divided into two parts. One part of each tumor was snap-frozen in liquid nitrogen and stored at −80° C. whereas the other part was analyzed via ex vivo bioluminescence imaging. During the course of the study, the growth of the orthotopically implanted RENCA tumors was monitored on days 7, 14 and 19 using in vivo bioluminescence imaging. For this purpose, luciferin was injected intraperitoneally (i.p.) into the mice and light emission was measured post injection (10 min) using a NightOWL LB 981 bioluminescence imaging system (Berthold Technologies, Germany). The migration of RENCA tumor cells into the lung (metastasis) was analyzed post necropsy by counting nodules and using the luciferase assay. For this purpose, lungs were collected, homogenized, and assayed for luciferase activity using the kit from Promega (E1501) according to the manufacturer's instructions. Protein concentrations were determined using a Bradford assay and used to normalize luciferase activities (except for the primary tumor). A histological examination of the tumor vasculature was performed. For this purpose, cryosections of primary tumor tissues (thickness=5-10 μm) from the snap-frozen portion of the organ and blood vessels were visualized by immunohistochemical staining for CD 31 (PECAM-1; PharMingen, San Diego, Calif.). […] Statistical analysis of efficacy data was done using the Mann Whitney test.

[2] = ester bond, DIAD/PPh3, toluene, 23.0 °C
[3] = in vivo; cited from earlier work

CCN(CC)CCNC(=O)c1c(C)[nH]c(/C=C2\C(=O)Nc3ccc(F)cc32)c1C [sunitinib, reference compound]
animals having a high count of lung metastatic nodules [1]: 5

CCOCOc1cc2c(c(OCOCC)c1)C(=O)O[C@@H](C)C/C=C\C(OC(=O)c1ccccc1)[C@H]1OC(C)(C)O[C@H]1CCO2 (stereo partly shown)
ring closure, yield of all isomers ([2]; from CCOCOc1cc(OCC[C@@H]2OC(C)(C)O[C@@H]2C(/C=C\C[C@@H](C)O)OC(=O)c2ccccc2)c(C(=O)O)c(OCOCC)c1, 10.7 mM, 2.0 h): 80%

CCOCOc1cc2c(c(OCOCC)c1)C(=O)O[C@@H](C)C/C=C(/F)C(OC(=O)c1ccccc1)[C@H]1OC(C)(C)O[C@H]1C/C=C/2 (stereo partly shown)
ring closure, yield of all isomers ([2]; from CCOCOc1cc(/C=C/C[C@@H]2OC(C)(C)O[C@@H]2C(OC(=O)c2ccccc2)/C(F)=C\C[C@@H](C)O)c(C(=O)O)c(OCOCC)c1, 10.2 mM, 1.5 h, 2 steps): 74%

CCOc1cc2ncc(C#N)c(Nc3ccc(F)c(Cl)c3)c2cc1NC(=O)/C=C/CN(C)C [EKB-569]
safety in phase I clinical trial [3]: safe
